According to paper PMC6979384, “Characterization of the plant homeodomain (PHD) reader family for their histone tail interactions” (Epigenetics & Chromatin, 2020):

What was measured:
Test in all cases: Histone peptide microarray
Type in all cases: binding, human
Details in all cases: sheet "Array Heatmap"
DPF2 (PPC2W2) = tested on: DPF2 (PPC2W2)
Outline: (§1)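 Each reader, produced as a GST fusion and purified, was tested at 0.5 μM on synthetic histone peptides (293 in total) carrying single or combinatorial marks. Intensities averaged over four replicates.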

PHF21A = tested on: PHF21A
Outline: as §1

CHD5 (PCC) = tested on: CHD5 (PCC)
Outline: as §1

KDM7A = tested on: KDM7A
Outline: as §1

RAG2 = tested on: RAG2
Outline: as §1

ING1 = tested on: ING1
Outline: as §1

CHD5 (PPCC) = tested on: CHD5 (PPCC)
Outline: as §1

KDM5A (1) = tested on: KDM5A (1)
Outline: as §1

BPTF (PB) = tested on: BPTF (PB)
Outline: as §1

ING3 = tested on: ING3
Outline: as §1

BAZ2B = tested on: BAZ2B
Outline: as §1

PHF2 = tested on: PHF2
Outline: as §1

MORC3 (CW) = tested on: MORC3 (CW)
Outline: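 Readout is array binding signal, reported as the mean and standard deviation over four replicates. Each purified GST-fused PHD domain was incubated at 0.5 μM with a library of 293 modified histone peptides.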

DIDO1 = tested on: DIDO1
Outline: as §1

PHF23 = tested on: PHF23
Outline: as §1

KDM5B (1) = tested on: KDM5B (1)
Outline: as §1

MLL5 = tested on: MLL5
Outline: as §1

PHRF1 (RP) = tested on: PHRF1 (RP)
Outline: as §1

KDM5B (3) = tested on: KDM5B (3)
Outline: as §1

TRIM66 (PB) = tested on: TRIM66 (PB)
Outline: as §1

PHF8 = tested on: PHF8
Outline: as §1

AIRE (PP) = tested on: AIRE (PP)
Outline: as §1

CHD4 (PPCC) = tested on: CHD4 (PPCC)
Outline: as §1

SP140L = tested on: SP140L
Outline: as §1

ING2 = tested on: ING2
Outline: as §1

KDM4C (TTP) = tested on: KDM4C (TTP)
Outline: as §1

ING5 = tested on: ING5
Outline: as §1

TAF3 = tested on: TAF3
Outline: as §1

PHF13 = tested on: PHF13
Outline: as §1

KDM5A (3) = tested on: KDM5A (3)
Outline: as §1

ING4 = tested on: ING4
Outline: as §1

[1] = GST-tagged reader, histone peptide array, total n = 4

## H3 (1-25): H3 1-25
DPF2 (PPC2W2); [1]
  Array Heatmap signal, DPF2 (PPC2W2): 0.7357
PHF21A; [1]
  Array Heatmap signal, PHF21A: 0.4429
CHD5 (PCC); [1]
  Array Heatmap signal, CHD5 (PCC): 0.8391
KDM7A; [1]
  Array Heatmap signal, KDM7A: 0.3768
RAG2; [1]
  Array Heatmap signal, RAG2: 0.2539
ING1; [1]
  Array Heatmap signal, ING1: 0.5226
CHD5 (PPCC); [1]
  Array Heatmap signal, CHD5 (PPCC): 0.5322
KDM5A (1); [1]
  Array Heatmap signal, KDM5A (1): 0.4713
BPTF (PB); [1]
  Array Heatmap signal, BPTF (PB): 0.3452
ING3; [1]
  Array Heatmap signal, ING3: 0.4651
BAZ2B; [1]
  Array Heatmap signal, BAZ2B: 0.4554
PHF2; [1]
  Array Heatmap signal, PHF2: 0.5334
MORC3 (CW); [1]
  Array Heatmap signal, MORC3 (CW): 0.6357
DIDO1; [1]
  Array Heatmap signal, DIDO1: 0.658
PHF23; [1]
  Array Heatmap signal, PHF23: 0.5406
KDM5B (1); [1]
  Array Heatmap signal, KDM5B (1): 0.6949
MLL5; [1]
  Array Heatmap signal, MLL5: 0.57
PHRF1 (RP); [1]
  Array Heatmap signal, PHRF1 (RP): 0.8507
KDM5B (3); [1]
  Array Heatmap signal, KDM5B (3): 0.5183
TRIM66 (PB); [1]
  Array Heatmap signal, TRIM66 (PB): 0.9221
PHF8; [1]
  Array Heatmap signal, PHF8: 0.366
AIRE (PP); [1]
  Array Heatmap signal, AIRE (PP): 0.5222
CHD4 (PPCC); [1]
  Array Heatmap signal, CHD4 (PPCC): 0.5563
SP140L; [1]
  Array Heatmap signal, SP140L: 0.342
ING2; [1]
  Array Heatmap signal, ING2: 0.6234
KDM4C (TTP); [1]
  Array Heatmap signal, KDM4C (TTP): 0.4415
ING5; [1]
  Array Heatmap signal, ING5: 0.3412
TAF3; [1]
  Array Heatmap signal, TAF3: 0.2692
PHF13; [1]
  Array Heatmap signal, PHF13: 0.6012
KDM5A (3); [1]
  Array Heatmap signal, KDM5A (3): 0.6477
ING4; [1]
  Array Heatmap signal, ING4: 0.4369

## H3 15-34: H3 15-34
DPF2 (PPC2W2); GST-tagged DPF2 (PPC2W2), arrays performed twice, total replicate number n = 4
  Array Heatmap signal, DPF2 (PPC2W2): 0.6945
PHF21A; GST-tagged PHF21A, arrays performed twice, total replicate number n = 4
  Array Heatmap signal, PHF21A: 0.5191
CHD5 (PCC); GST-tagged CHD5 (PCC), arrays performed twice, total replicate number n = 4
  Array Heatmap signal, CHD5 (PCC): 0.8306
KDM7A; GST-tagged KDM7A, arrays performed twice, total replicate number n = 4
  Array Heatmap signal, KDM7A: 0.4439
RAG2; GST-tagged RAG2, arrays performed twice, total replicate number n = 4
  Array Heatmap signal, RAG2: 0.2601
ING1; GST-tagged ING1, arrays performed twice, total replicate number n = 4
  Array Heatmap signal, ING1: 0.5616
CHD5 (PPCC); GST-tagged CHD5 (PPCC), arrays performed twice, total replicate number n = 4
  Array Heatmap signal, CHD5 (PPCC): 0.6174
KDM5A (1); GST-tagged KDM5A (1), arrays performed twice, total replicate number n = 4
  Array Heatmap signal, KDM5A (1): 0.5387
BPTF (PB); GST-tagged BPTF (PB), arrays performed twice, total replicate number n = 4
  Array Heatmap signal, BPTF (PB): 0.3761
ING3; GST-tagged ING3, arrays performed twice, total replicate number n = 4
  Array Heatmap signal, ING3: 0.5057
BAZ2B; GST-tagged BAZ2B, arrays performed twice, total replicate number n = 4
  Array Heatmap signal, BAZ2B: 0.514
PHF2; GST-tagged PHF2, arrays performed twice, total replicate number n = 4
  Array Heatmap signal, PHF2: 0.4604
MORC3 (CW); GST-tagged MORC3 (CW), arrays performed twice, total replicate number n = 4
  Array Heatmap signal, MORC3 (CW): 0.3679
DIDO1; GST-tagged DIDO1, arrays performed twice, total replicate number n = 4
  Array Heatmap signal, DIDO1: 0.6822
PHF23; GST-tagged PHF23, arrays performed twice, total replicate number n = 4
  Array Heatmap signal, PHF23: 0.5205
KDM5B (1); GST-tagged KDM5B (1), arrays performed twice, total replicate number n = 4
  Array Heatmap signal, KDM5B (1): 0.7112
MLL5; GST-tagged MLL5, arrays performed twice, total replicate number n = 4
  Array Heatmap signal, MLL5: 0.5742
PHRF1 (RP); GST-tagged PHRF1 (RP), arrays performed twice, total replicate number n = 4
  Array Heatmap signal, PHRF1 (RP): 0.4582
KDM5B (3); GST-tagged KDM5B (3), arrays performed twice, total replicate number n = 4
  Array Heatmap signal, KDM5B (3): 0.4984
TRIM66 (PB); GST-tagged TRIM66 (PB), arrays performed twice, total replicate number n = 4
  Array Heatmap signal, TRIM66 (PB): 0.5952
PHF8; GST-tagged PHF8, arrays performed twice, total replicate number n = 4
  Array Heatmap signal, PHF8: 0.3827
AIRE (PP); GST-tagged AIRE (PP), arrays performed twice, total replicate number n = 4
  Array Heatmap signal, AIRE (PP): 0.5155
CHD4 (PPCC); GST-tagged CHD4 (PPCC), arrays performed twice, total replicate number n = 4
  Array Heatmap signal, CHD4 (PPCC): 0.5968
SP140L; GST-tagged SP140L, arrays performed twice, total replicate number n = 4
  Array Heatmap signal, SP140L: 0.3812
ING2; GST-tagged ING2, arrays performed twice, total replicate number n = 4
  Array Heatmap signal, ING2: 0.6111
KDM4C (TTP); GST-tagged KDM4C (TTP), arrays performed twice, total replicate number n = 4
  Array Heatmap signal, KDM4C (TTP): 0.5661
ING5; GST-tagged ING5, arrays performed twice, total replicate number n = 4
  Array Heatmap signal, ING5: 0.4109
TAF3; GST-tagged TAF3, arrays performed twice, total replicate number n = 4
  Array Heatmap signal, TAF3: 0.3059
PHF13; GST-tagged PHF13, arrays performed twice, total replicate number n = 4
  Array Heatmap signal, PHF13: 0.6527
KDM5A (3); GST-tagged KDM5A (3), arrays performed twice, total replicate number n = 4
  Array Heatmap signal, KDM5A (3): 0.4281
ING4; GST-tagged ING4, arrays performed twice, total replicate number n = 4
  Array Heatmap signal, ING4: 0.5265
